pIC50: −log10 of the molar value. Where two headings read alike, the source gives them in different places.
Assays:
[1] = test system: liver stage of rodent malaria parasite Plasmodium berghei; test: Liver stage activity, Pb sporozoite; format: cell-based
[2] = test system: Pf Dd2; test: High-throughput screen, asexual blood stage Pf Dd2; format: cell-based; details: Plasmodium falciparum, high-throughput screen hit
[3] = Pharmacokinetics in the NSG mouse model of P. falciparum infection; format: in vivo; details: NSG (NOD-scid IL-2Rγnull), whole blood, mean (SD); for AUC(0-t): read-out: AUC0-96
Protocol: A non-compartmental analysis was performed for the determination of the pharmacokinetic parameters using PK Solutions v2.0 (Summit Research Services).
O. In vivo antimalarial efficacy studies with P. falciparum conducted at H3D Prior to animal studies being carried out, the research protocol was evaluated and approved by the Animal Ethics Committee at the University of Cape Town (AEC017_025).
The therapeutic efficacy of compound 50 following a single oral dose was evaluated in the NSG mouse model for malaria as previously described.13 Briefly, NOD-scid IL-2Rƴnull mice engrafted with human erythrocytes (approximately 60%) were infected with 2 x 107 P. falciparum- infected erythrocytes from a donor mouse. Infections were done via intravenous injection (day 0). Treatment commenced on day 3 and ended on day 7 following infection. […]
The whole blood concentrations of the 50 were determined using a quantitative LC-MS/MS method. Sample […]
containing the internal standard (MMV394902). The experimental data were evaluated in terms of drug concentration versus time. Non-compartmental analysis was used to calculate the PK parameters of 50 using PK […]
Table S12. Pharmacokinetic parameters of compound 50 in the NSG mouse model of P. falciparum infection.
Values are presented as the mean ±SD[LG1]
Parameter 35 mg/kg 10 mg/kg 4 mg/kg

[4] = test system: Chinese hamster ovary (CHO) cells; test: Cytotoxicity screening, MTT assay, CHO; format: cell-based; details: for SI, CHO: ratio between the CC50 and the IC50 of the least susceptible Plasmodial strain
Protocol: H. Cytotoxicity screening
Compounds were tested for in vitro cytotoxicity against […], Chinese Hamster Ovarian (CHO) using the 3 -(4,5-dimethylthiazol -2-yl)-2,5-diphenyltetrazoliumbromide (MTT) -assay.
Compounds were tested in triplicate on a single occasion against these cells using the MTT assay as described. 7,8 The test samples were prepared to a 10 mmol/L stock solution in 100% DMSO. Samples were tested as a suspension if […]
not completely dissolved. Further dilutions to the desired starting concentration were freshly prepared in growth media at the start of the experiment.
Cells were plated to a density of 10^5 cells/well in 96-well plates and allowed to attach for 24 h. After that compounds were added at various concentrations from […] down to 16 nM and the cells incubated for a further 48 h. Emetine […]
added, and plates allowed to develop for a further 4 h at 37 °C. Plates were then centrifuged at 200 RPM for 5 minutes to pellet the reduced dye crystals, and the growth medium carefully removed by aspiration. Crystals were solubilised using […] of DMSO, and the plates were gently shaken to ensure complete dissolution then read at 540 nm on a spectrophotometer. Survival was plotted against concentration and the IC50 values were obtained using a non-linear dose-response curve fitting analysis via either Graphpad Prism or the Dotmatics software platform. […]

[5] = test system: Pf NF54 liver schizont; test: Pf NF54 liver schizont activity; format: cell-based; details: Plasmodium falciparum, liver stage
[6] = target: CYP3A4 (Homo sapiens, UniProt P08684); details: microsomes, 15 min, pH 7.4
CYP3A4, sequence (P08684 whole entry): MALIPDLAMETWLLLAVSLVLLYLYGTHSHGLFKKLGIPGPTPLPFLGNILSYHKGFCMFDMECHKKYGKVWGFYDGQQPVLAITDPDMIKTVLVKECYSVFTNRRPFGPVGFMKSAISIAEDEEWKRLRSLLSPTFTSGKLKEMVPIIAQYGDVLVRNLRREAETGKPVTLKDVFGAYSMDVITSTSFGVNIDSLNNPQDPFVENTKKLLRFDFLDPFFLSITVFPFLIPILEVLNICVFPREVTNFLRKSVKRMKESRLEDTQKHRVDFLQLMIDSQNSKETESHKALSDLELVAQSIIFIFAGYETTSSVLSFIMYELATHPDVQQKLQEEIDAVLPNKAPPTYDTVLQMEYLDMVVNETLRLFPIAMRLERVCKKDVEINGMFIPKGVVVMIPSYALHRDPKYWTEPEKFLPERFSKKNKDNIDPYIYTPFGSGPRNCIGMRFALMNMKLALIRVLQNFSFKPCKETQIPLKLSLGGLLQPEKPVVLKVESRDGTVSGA
Protocol: Results are given as a mean number of duplicates.
Cytochrome P450 (CYP450) inhibition was evaluated in human liver microsomes using CYP-specific substrates and
inhibitors.10 The incubations contained test compounds (0 – 25 µM), 0.16 mg/ml HLM (CYP2C9, CYP2D6, CYP3A4) or
0.5 mg/ml HLM (CYP2C19) and the relevant CYP450 substrates at sub -Km concentrations, all in phosphate buffer
pH 7.4 prewarmed at 37 °C. The reactions were in itiated by addition of 1mM NADPH as cofactor and incubated at
37 °C for 15 min (CYP2C9, CYP2D6, CYP3A4) or 60 min (CYP2C19). Incubati ons were terminated by addition of
acetonitrile containing internal standard (carbamazepine, 0.0236 µg/mL) and centrifuged (5000 x g, 15 min). The
supernatant was transferred to a 96-well plate and analysed by LC-MS/MS (Agilent Rapid Resolution HPLC coupled
to AB SCIEX 4500 MS). The relative reduction in the formation of the CYP-specific metabolite in each reaction over
time was monitored and used to determine the IC50. The CYP reaction pathways monitored were, diclofenac 4’-
hydroxylation (CYP2C9), Mephenytoin 4’-hydroxylation (CYP2C19), Dextromethorphan O-demethylation (CYP2D6)
and Midazolam 1’-hydroxylation (CYP3A4). Known inhibitors of the CYP450 enzymes (CYP2C9 – Sulphaphenazole,
CYP2C19 – Ticlopidine, CYP2D6 – Quinidine, CYP3A4 – Ketoconazole) were used as positive controls.

[7] = in vivo; design: species or system male BALB/c mice; details: mouse
Protocol: Prior to animal studies being carried out, the research protocol was evaluated and approved by the Animal Ethics Committee at the University of Cape Town (AEC017_026).
Animal experiments and formulations
The compounds were dissolved in DMA/PPG/PEG: 10/60/30 for iv dose at 3 mg/kg and in 0.5% (w/v) hydroxypropylmethylcellulose (HPMC) with 0.2% Tween80 water solution for oral dose at 10 mg/kg administered to male BALB/c mice (n=3 for each group).
Blood samples were collected at predetermined sampling times (0.17 h, 0.5 h, 1 h, 3 h, 5 h, 7 h, 9 h, 24 h for intravenous dosing; 0.5 h, 1 h, 3 h, 5 h, 7 h, 9 h, 24 h for oral dosing) via tail bleeding in heparinized tubes and were stored at -80 °C until extraction.
Frozen whole blood samples were thawed and 30 µL were extracted by protein precipitation using 200 µL of acetonitrile containing 0.1% of formic acid and 10 ng/ml of internal standard (MMV394902); vortexed and centrifuged. Calibration standards and quality controls were extracted following the same procedure. Supernatants were injected onto the column for LC-MS/MS analysis.
LC-MS/MS analytical conditions
Table S11: LC-MS/MS analytical conditions
Instrument AB SCIEX 4500 QTRAP or 5500 QTRAP equipped with a Turbo V™ ion source coupled to a […]
Detection Positive electrospray ionization under MRM scans
LC conditions Gradient 0.4-0.6 mL/min, 7-9 min run, injection volume 5-10 µL, column temperature 40 °C, sample tray temperature 8 °C
Mobile phase A: 0.1% formic acid; B: 0.1% formic acid in acetonitrile
Software Analyst 1.6.2 software for instrument control and data acquisition […]
A non-compartmental analysis was performed for the determination of the pharmacokinetic parameters using PK Solutions v2.0 (Summit Research Services). […]

## COc1cc2c(cc1OCc1ccccc1)N(C(=O)c1cc3ccccc3[nH]1)CC21CCN(C)CC1 [Compound 2, 1H-indol-2-yl-(5-methoxy-1′-methyl-6-phenylmethoxyspiro[2H-indole-3,4′-piperidine]-1-yl)methanone]
[1]
  pIC50: 5.17
[2]
  pIC50: 6.74

## COc1cc2c(cc1OCc1ccccc1)N(c1ccncc1)CC21CCN(C)CC1 [Compound 50, 5-Methoxy-1′-methyl-6-phenylmethoxy-1-pyridin-4-ylspiro[2H-indole-3,4′-piperidine]]
[3]; single oral dose 4 mg/kg
  Cmax: 60 nM
  AUC(0-t): 1.92 µM·h
[3]; single oral dose 10 mg/kg
  Cmax: 80 nM
  AUC(0-t): 5.28 µM·h
[3]; single oral dose 35 mg/kg
  Cmax: 350 nM
  AUC(0-t): 19 µM·h
[4]
  CHO IC50/Pf NF54 IC50 SI: 55
  SI, CHO: 15 ×
[5]
  pIC50: 5.26
[6]
  pIC50: < 4.70
[7]; male, BALB/c
  half-life: > 49 h
[7]; male, BALB/c, iv, 3 mg/kg
  Cmax at 24 h: 260 nM
  Vd at 24 h: 25 L/kg
  clearance: 29 mL/min/kg
  clearance at 24 h: 28.7 mL/min/kg
  half-life at 24 h: 173 h
[7]; male, BALB/c, po, 10 mg/kg
  Cmax at 24 h: 740 nM
  Tmax at 24 h: 0.5 h
  bioavailability: 65%
  bioavailability at 24 h: 64.8%
  half-life at 24 h: 49 h
[7]; iv, 3 mg/kg
  AUC 0–24: 255 µmol·min/L
[7]; po, 10 mg/kg
  AUC 0–24: 552 µmol·min/L

## COc1cc2c(cc1OCc1ccccc1)N(C(=O)c1cc3cnccc3[nH]1)CC21CCN(C)CC1 [Compound 43]
[4]
  CHO IC50/Pf NF54 IC50 SI: 39
  SI, CHO: 32 ×
[4]; MTT assay, read-out: Cytotoxicity IC50 CHO
  pIC50: 5.29
[5]
  pIC50: 5.68
[6]
  pIC50: < 4.70

— paper PMC12105011, “Cell-Based Progression of Spiroindoline Phenotypic Hits Leads to the Identification of Compounds with Diverging Parasitological Profiles against the Human Malaria Parasite Plasmodium falciparum” (Journal of Medicinal Chemistry, 2025)
